This is an account of results in ChEMBL document CHEMBL1909046, “DrugMatrix in vitro pharmacology data”.

Chain of Epidermal growth factor receptor (P00533 whole entry): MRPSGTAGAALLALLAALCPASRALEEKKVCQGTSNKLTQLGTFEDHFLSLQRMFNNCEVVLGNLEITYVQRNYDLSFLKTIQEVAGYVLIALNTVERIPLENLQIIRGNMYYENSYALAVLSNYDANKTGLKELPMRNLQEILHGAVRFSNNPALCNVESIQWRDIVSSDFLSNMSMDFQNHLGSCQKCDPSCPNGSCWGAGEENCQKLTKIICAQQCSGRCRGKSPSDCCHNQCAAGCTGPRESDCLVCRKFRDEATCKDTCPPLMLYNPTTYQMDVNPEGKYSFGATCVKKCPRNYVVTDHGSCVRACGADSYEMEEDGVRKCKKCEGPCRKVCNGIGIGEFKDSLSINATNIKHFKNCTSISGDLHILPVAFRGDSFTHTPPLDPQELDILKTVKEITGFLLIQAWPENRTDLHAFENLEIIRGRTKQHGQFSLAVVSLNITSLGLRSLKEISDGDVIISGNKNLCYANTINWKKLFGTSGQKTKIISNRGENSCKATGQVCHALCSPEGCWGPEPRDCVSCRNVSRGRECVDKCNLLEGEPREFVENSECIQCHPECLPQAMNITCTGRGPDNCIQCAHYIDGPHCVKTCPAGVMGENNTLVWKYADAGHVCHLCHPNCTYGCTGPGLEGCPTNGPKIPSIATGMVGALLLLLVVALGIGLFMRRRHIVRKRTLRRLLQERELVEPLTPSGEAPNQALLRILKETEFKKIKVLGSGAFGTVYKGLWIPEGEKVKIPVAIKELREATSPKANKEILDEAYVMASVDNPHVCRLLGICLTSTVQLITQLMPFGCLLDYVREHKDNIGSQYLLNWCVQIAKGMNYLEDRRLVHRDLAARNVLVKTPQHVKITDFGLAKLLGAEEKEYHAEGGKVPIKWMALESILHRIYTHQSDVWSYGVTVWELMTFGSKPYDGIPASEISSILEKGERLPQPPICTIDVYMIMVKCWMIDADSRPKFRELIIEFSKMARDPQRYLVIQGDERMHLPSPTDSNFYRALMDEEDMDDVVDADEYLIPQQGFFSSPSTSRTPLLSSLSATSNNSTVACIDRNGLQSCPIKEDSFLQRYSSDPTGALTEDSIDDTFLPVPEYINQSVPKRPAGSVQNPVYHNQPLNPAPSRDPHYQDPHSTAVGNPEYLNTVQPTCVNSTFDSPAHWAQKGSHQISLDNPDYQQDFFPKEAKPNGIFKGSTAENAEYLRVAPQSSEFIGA
Chain of Melanocortin receptor 5 (P33032 whole entry): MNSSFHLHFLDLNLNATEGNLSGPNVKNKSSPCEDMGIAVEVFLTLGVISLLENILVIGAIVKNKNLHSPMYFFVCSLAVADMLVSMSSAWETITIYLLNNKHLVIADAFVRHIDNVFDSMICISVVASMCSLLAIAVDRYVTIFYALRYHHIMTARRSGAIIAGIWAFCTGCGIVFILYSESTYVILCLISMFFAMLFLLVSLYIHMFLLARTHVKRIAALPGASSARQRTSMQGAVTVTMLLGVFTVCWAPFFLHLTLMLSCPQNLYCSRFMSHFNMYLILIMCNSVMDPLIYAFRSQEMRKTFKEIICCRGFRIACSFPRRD
Chain of Tyrosine-protein kinase Fyn (P06241 whole entry): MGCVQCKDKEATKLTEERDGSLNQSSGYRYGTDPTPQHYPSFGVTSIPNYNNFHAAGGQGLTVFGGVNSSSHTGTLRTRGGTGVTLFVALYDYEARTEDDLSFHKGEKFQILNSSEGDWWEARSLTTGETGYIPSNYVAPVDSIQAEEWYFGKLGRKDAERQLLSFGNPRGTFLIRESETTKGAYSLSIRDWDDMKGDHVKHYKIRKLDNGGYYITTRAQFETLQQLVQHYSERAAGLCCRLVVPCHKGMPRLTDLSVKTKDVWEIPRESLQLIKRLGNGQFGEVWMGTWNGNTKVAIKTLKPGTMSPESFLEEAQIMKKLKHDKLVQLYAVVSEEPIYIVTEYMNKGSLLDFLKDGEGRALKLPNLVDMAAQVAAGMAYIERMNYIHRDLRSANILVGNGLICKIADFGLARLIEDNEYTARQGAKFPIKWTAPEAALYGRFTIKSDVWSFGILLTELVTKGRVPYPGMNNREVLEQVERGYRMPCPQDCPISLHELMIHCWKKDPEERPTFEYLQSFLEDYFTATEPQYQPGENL
Chain of 5-hydroxytryptamine receptor 1B (P28564 whole entry): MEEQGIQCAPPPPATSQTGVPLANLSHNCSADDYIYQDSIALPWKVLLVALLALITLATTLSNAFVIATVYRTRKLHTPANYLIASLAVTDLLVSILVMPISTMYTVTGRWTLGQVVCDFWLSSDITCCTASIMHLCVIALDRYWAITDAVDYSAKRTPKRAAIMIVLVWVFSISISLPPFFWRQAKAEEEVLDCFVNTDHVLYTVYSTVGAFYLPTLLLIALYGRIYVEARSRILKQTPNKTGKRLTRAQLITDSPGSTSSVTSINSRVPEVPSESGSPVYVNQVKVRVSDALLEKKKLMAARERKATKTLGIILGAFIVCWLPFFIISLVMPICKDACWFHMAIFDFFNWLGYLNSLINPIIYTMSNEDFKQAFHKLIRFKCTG

System in the first test: not listed separately
In words: DRUGMATRIX: Sigma2 radioligand binding (ligand: [3H] Ifenprodil). The format is cell membranes, Rattus norvegicus, Wistar, Brain, Membrane. The conditions noted are these: Not Active = under 50% inhibition at 10 µM.
On to `COc1ccc2cc(CC(=O)O)ccc2c1`, for which the IC50 result is “Not Active” and the Ki result is “Not Active”.
For the compound `CC[C@@]1(O)C(=O)OCc2c1cc1n(c2=O)Cc2cc3ccccc3nc2-1` [CAMPTOTHECIN], the IC50 entry is “Not Active” and the Ki entry was “Not Active”.

The target of another test is T1, Cysteinyl leukotriene receptor 1 (Homo sapiens, UniProt Q9Y271). Further: in other assays of this panel Not Active means under 50% inhibition at 10 µM.
T1 sequence (Q9Y271 whole entry): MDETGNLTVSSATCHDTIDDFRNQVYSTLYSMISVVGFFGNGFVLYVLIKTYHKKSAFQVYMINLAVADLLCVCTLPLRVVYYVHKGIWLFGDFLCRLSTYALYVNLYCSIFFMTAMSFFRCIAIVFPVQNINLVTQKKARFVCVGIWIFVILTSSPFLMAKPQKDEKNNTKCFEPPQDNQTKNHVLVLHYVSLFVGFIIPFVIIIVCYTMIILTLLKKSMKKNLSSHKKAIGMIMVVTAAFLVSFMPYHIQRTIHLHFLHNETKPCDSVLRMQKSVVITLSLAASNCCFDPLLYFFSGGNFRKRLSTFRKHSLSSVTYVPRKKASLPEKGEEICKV
Test: not given
It counts as cell membranes, CHO-K1, Membrane. The conditions noted are these: cho-k1.
For the compound `COc1ccc2cc(CC(=O)O)ccc2c1`, the IC50 result is recorded as “Not Active”.
Same read-out and setting: under `CC[C@@]1(O)C(=O)OCc2c1cc1n(c2=O)Cc2cc3ccccc3nc2-1` [CAMPTOTHECIN] stands “Not Active”.

The target of another test is T2, 5-hydroxytryptamine receptor 2C (Homo sapiens, UniProt P28335).
T2 sequence (P28335 whole entry): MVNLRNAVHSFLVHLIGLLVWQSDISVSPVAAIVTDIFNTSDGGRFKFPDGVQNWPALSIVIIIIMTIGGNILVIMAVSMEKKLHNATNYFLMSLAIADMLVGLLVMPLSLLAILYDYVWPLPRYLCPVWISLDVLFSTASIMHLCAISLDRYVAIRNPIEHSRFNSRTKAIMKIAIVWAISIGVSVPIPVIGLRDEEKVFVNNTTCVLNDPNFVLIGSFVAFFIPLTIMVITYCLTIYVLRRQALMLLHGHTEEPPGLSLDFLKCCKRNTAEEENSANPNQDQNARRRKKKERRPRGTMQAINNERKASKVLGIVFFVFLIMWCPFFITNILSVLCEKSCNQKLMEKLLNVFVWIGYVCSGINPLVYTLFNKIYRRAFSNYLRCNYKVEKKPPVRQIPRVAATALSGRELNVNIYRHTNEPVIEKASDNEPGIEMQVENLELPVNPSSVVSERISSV
In words: DRUGMATRIX: Serotonin (5-Hydroxytryptamine) 5-HT2C radioligand binding (ligand: [3H] Mesulergine). The format is cell membranes, CHO-K1, Membrane. The conditions noted are these: cho-k1; Not Active = under 50% inhibition at 10 µM.
Take `COc1ccc2cc(CC(=O)O)ccc2c1`: the IC50 entry was “Not Active”.
The same measure, in the same setting: under `CC[C@@]1(O)C(=O)OCc2c1cc1n(c2=O)Cc2cc3ccccc3nc2-1` [CAMPTOTHECIN] stands “Not Active”.

A further test has as its target 5-hydroxytryptamine receptor 1B (Rattus norvegicus, UniProt P28564). Further: in other assays of this panel Not Active means under 50% inhibition at 10 µM.
Test: not given
Conditions: not given
The format is cell membranes, Wistar, Cerebral cortex, Membrane.
For `COc1ccc2cc(CC(=O)O)ccc2c1`, the IC50 result was “Not Active”.
`CC[C@@]1(O)C(=O)OCc2c1cc1n(c2=O)Cc2cc3ccccc3nc2-1` [CAMPTOTHECIN]: the IC50 entry is “Not Active”.

The target of the next test is Melanocortin receptor 4 (Homo sapiens, UniProt P32245). Further: in other assays of this panel Not Active means under 50% inhibition at 10 µM.
Chain of Melanocortin receptor 4 (P32245 whole entry): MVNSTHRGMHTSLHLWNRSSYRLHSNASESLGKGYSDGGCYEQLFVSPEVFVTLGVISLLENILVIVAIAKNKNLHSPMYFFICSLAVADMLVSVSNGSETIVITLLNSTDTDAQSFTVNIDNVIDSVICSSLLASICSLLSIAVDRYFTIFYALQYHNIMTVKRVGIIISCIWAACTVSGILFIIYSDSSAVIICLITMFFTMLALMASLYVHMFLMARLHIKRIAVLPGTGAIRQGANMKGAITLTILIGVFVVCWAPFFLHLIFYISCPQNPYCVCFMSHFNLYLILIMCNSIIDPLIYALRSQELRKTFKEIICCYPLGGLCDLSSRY
Test: not given
It counts as cell membranes, Membrane. The conditions noted are these: hek293.
`COc1ccc2cc(CC(=O)O)ccc2c1`: the IC50 result was “Not Active”.
Same read-out and setting: in the case of `CC[C@@]1(O)C(=O)OCc2c1cc1n(c2=O)Cc2cc3ccccc3nc2-1` [CAMPTOTHECIN] it was “Not Active”.

Another test concerns the target Epidermal growth factor receptor (Homo sapiens, UniProt P00533). In words: DRUGMATRIX: Protein Tyrosine Kinase, EGF Receptor enzyme inhibition (substrate: Poly(Glu:Tyr)). It counts as cell-based, Insect cells. The conditions noted are these: insect cells; Not Active = under 50% inhibition at 10 µM.
Consider `COc1ccc2cc(CC(=O)O)ccc2c1`, for which the IC50 entry is “Not Active”.
Same read-out and setting: in the case of `CC[C@@]1(O)C(=O)OCc2c1cc1n(c2=O)Cc2cc3ccccc3nc2-1` [CAMPTOTHECIN] it was “Not Active”.

System in another test: not listed separately
As to the kind of experiment: DRUGMATRIX: beta-Lactamase enzyme inhibition (substrate: Nitrocefin). Details: species or system Bacillus cereus. The conditions noted are these: Not Active = under 50% inhibition at 10 µM.
In the case of `COc1ccc2cc(CC(=O)O)ccc2c1`, the IC50 result is listed as “Not Active” and the Ki result is “Not Active”.
Turning to `CC[C@@]1(O)C(=O)OCc2c1cc1n(c2=O)Cc2cc3ccccc3nc2-1` [CAMPTOTHECIN], the IC50 result is given as “Not Active” and the Ki entry was “Not Active”.

System in another test: not listed separately
As to the kind of experiment: DRUGMATRIX: Leukotriene, BLT (LTB4) radioligand binding (ligand: [3H]LTB4). The format is cell membranes, Membrane. The conditions noted are these: u-937; Not Active = under 50% inhibition at 10 µM.
On to `COc1ccc2cc(CC(=O)O)ccc2c1`, for which the IC50 entry was “Not Active” and the Ki entry was “Not Active”.
On to `CC[C@@]1(O)C(=O)OCc2c1cc1n(c2=O)Cc2cc3ccccc3nc2-1` [CAMPTOTHECIN], for which the IC50 entry was “Not Active” and the Ki result is reported as “Not Active”.

Another test has as its target Tyrosine-protein kinase Fyn (Homo sapiens, UniProt P06241). In words: biochemical. The conditions noted are these: insect cells. The format is cell-based, Insect cells.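 Further: enzymatic inhibition of Fyn kinase activity measured with Poly(Glu:Tyr) as the phosphorylation substrate; in other assays of this panel Not Active means under 50% inhibition at 10 µM.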
As for `COc1ccc2cc(CC(=O)O)ccc2c1`, the IC50 entry was “Not Active”.
On the same count and under the same terms, in the case of `CC[C@@]1(O)C(=O)OCc2c1cc1n(c2=O)Cc2cc3ccccc3nc2-1` [CAMPTOTHECIN] it was “Not Active”.

The next test concerns the target T3, Cathepsin G (Homo sapiens, UniProt P08311).
T3 sequence (P08311 whole entry): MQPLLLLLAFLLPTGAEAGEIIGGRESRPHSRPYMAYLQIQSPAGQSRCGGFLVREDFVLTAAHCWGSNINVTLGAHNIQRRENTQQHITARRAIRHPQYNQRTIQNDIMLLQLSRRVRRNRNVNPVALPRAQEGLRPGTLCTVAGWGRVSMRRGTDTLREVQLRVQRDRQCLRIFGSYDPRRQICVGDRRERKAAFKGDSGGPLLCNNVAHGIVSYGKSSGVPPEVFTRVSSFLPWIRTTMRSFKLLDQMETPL
Test: not given
The conditions noted are these: neutrophil. The format is tissue-based.
Regarding `COc1ccc2cc(CC(=O)O)ccc2c1`, the IC50 entry is reported as “Not Active”.
Consider `CC[C@@]1(O)C(=O)OCc2c1cc1n(c2=O)Cc2cc3ccccc3nc2-1` [CAMPTOTHECIN], for which the IC50 result is reported as “Not Active”.

Another test addresses T4, D(4) dopamine receptor (Homo sapiens, UniProt P21917).
T4 sequence (P21917 whole entry): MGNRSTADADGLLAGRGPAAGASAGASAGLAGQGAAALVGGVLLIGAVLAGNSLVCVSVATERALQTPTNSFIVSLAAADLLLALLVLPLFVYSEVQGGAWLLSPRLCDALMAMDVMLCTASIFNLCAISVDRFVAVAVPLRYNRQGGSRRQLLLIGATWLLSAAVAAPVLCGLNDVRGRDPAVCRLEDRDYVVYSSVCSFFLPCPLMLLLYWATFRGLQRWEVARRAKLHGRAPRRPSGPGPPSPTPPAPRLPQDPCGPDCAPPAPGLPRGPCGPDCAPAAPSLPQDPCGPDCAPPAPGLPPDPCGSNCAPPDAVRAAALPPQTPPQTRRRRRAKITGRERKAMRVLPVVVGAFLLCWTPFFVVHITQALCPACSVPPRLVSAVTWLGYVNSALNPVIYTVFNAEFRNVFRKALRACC
As to the kind of experiment: DRUGMATRIX: Dopamine D4.2 radioligand binding (ligand: [3H] Spiperone). It counts as cell membranes, CHO-K1, Membrane. The conditions noted are these: cho-k1; Not Active = under 50% inhibition at 10 µM.
With `COc1ccc2cc(CC(=O)O)ccc2c1`, the IC50 entry is given as “Not Active”.
Same read-out and setting: in the case of `CC[C@@]1(O)C(=O)OCc2c1cc1n(c2=O)Cc2cc3ccccc3nc2-1` [CAMPTOTHECIN] it was “Not Active”.

A further test has as its target Melanocortin receptor 5 (Homo sapiens, UniProt P33032). Further: in other assays of this panel Not Active means under 50% inhibition at 10 µM.
Test: not given
The format is cell membranes, HEK293, Membrane. The conditions noted are these: hek293.
As for `COc1ccc2cc(CC(=O)O)ccc2c1`, the IC50 result is “Not Active”.
With `CC[C@@]1(O)C(=O)OCc2c1cc1n(c2=O)Cc2cc3ccccc3nc2-1` [CAMPTOTHECIN], the IC50 entry was “Not Active”.

System in the next test: not listed separately
In words: DRUGMATRIX: Purinergic P2X radioligand binding (ligand: [3H] alpha, beta-Methylene-ATP). It counts as cell membranes, Oryctolagus cuniculus, New Zealand albino, Urinary bladder, Membrane. The conditions noted are these: Not Active = under 50% inhibition at 10 µM.
Regarding `COc1ccc2cc(CC(=O)O)ccc2c1`, the IC50 entry is reported as “Not Active” and the Ki result is “Not Active”.
As for `CC[C@@]1(O)C(=O)OCc2c1cc1n(c2=O)Cc2cc3ccccc3nc2-1` [CAMPTOTHECIN], the IC50 entry is “Not Active” and the Ki result was “Not Active”.

The next test deals with T5, Caspase-1 (Homo sapiens, UniProt P29466).
T5 sequence (P29466 whole entry): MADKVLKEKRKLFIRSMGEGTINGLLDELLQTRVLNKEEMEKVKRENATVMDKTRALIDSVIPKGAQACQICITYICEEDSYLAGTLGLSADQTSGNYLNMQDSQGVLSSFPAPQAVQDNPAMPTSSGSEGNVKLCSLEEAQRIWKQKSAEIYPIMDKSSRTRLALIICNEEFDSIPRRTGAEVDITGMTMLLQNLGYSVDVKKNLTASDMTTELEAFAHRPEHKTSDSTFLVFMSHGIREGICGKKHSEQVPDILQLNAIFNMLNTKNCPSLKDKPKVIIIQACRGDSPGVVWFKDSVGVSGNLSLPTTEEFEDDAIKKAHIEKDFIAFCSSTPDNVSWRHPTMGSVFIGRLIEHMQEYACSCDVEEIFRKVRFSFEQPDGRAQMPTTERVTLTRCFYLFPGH
Test: not given
Set-up: species or system Escherichia coli.
Conditions: not given
As for `COc1ccc2cc(CC(=O)O)ccc2c1`, the IC50 result is recorded as “Not Active”.
Still for that read-out and setting: under `CC[C@@]1(O)C(=O)OCc2c1cc1n(c2=O)Cc2cc3ccccc3nc2-1` [CAMPTOTHECIN] stands “Not Active”.

In another test the target is Mu-type opioid receptor (Homo sapiens, UniProt P35372). As to the kind of experiment: DRUGMATRIX: Opiate mu (OP3, MOP) radioligand binding (ligand: [3H] Diprenorphine). The conditions noted are these: cho-k1; Not Active = under 50% inhibition at 10 µM. The format is cell membranes, CHO-K1, Membrane.
Chain of Mu-type opioid receptor (P35372 whole entry): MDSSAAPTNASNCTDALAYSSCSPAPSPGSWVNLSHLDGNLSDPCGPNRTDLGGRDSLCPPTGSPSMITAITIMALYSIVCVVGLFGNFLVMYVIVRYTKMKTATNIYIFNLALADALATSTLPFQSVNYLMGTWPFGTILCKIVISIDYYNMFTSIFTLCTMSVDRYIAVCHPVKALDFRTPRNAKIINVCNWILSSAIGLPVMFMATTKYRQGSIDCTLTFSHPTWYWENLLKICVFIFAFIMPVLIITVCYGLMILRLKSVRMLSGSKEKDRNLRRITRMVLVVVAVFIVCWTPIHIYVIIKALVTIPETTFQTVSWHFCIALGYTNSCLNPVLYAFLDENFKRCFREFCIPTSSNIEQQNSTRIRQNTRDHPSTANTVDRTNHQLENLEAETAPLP
Regarding `COc1ccc2cc(CC(=O)O)ccc2c1`, the IC50 entry is reported as “Not Active”.
Same read-out and setting: under `CC[C@@]1(O)C(=O)OCc2c1cc1n(c2=O)Cc2cc3ccccc3nc2-1` [CAMPTOTHECIN] stands “Not Active”.

The target in a further test is Beta-1 adrenergic receptor (Homo sapiens, UniProt P08588). In words: DRUGMATRIX: Adrenergic beta1 radioligand binding (ligand: [125I] Cyanopindolol). The format is cell membranes, CHO-K1, Membrane. The conditions noted are these: cho-k1; Not Active = under 50% inhibition at 10 µM.
Chain of Beta-1 adrenergic receptor (P08588 whole entry): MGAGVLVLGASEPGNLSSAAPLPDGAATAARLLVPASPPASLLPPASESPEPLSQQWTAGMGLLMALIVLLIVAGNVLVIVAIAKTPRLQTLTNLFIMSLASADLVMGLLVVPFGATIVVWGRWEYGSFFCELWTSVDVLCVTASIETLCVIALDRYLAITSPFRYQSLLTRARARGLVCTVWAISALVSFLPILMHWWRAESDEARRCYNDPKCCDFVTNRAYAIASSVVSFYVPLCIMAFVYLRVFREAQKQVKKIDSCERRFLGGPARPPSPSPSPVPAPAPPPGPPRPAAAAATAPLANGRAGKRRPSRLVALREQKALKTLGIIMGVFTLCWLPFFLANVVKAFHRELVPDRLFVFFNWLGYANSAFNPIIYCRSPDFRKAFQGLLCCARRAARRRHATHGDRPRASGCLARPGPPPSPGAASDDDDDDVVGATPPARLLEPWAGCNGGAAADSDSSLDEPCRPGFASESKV
On to `COc1ccc2cc(CC(=O)O)ccc2c1`, for which the IC50 result is “Not Active”.
The same measure, in the same setting: under `CC[C@@]1(O)C(=O)OCc2c1cc1n(c2=O)Cc2cc3ccccc3nc2-1` [CAMPTOTHECIN] stands “Not Active”.
